Test results as given in the NIST ThermoML archive (doi:10.1021/je9006597).

Legend:
[1] = 101 kPa, Liquid; for speed of sound: Pulse-echo method
[2] = xn = mol fraction of the nth substance listed; conditions: 101 kPa, Liquid; for speed of sound: Pulse-echo method

C1CCCCC1 [cyclohexane]
[1]
Conditions | mass density [kg/m3] | speed of sound [m/s] | viscosity [mPa·s]
303.15 K | 768.3 | 1228 | 0.823
308.15 K | 764.4 | 1208 | 0.772
313.15 K | 760.5 | 1188 | 0.685

C1CCCCC1 [cyclohexane] + COC(=O)c1ccccc1
[2], x2 = 0
Conditions | mass density [kg/m3] | speed of sound [m/s] | viscosity [mPa·s]
303.15 K | 768.3 | 1228 | 0.823
308.15 K | 764.4 | 1208 | 0.772
313.15 K | 760.5 | 1188 | 0.685

CCCCCCC [heptane]
[1]
Conditions | mass density [kg/m3] | speed of sound [m/s] | viscosity [mPa·s]
303.15 K | 674.5 | 1116 | 0.375
308.15 K | 670.3 | 1092 | 0.35
313.15 K | 667.2 | 1072 | 0.325

CCCCCCC [heptane] + COC(=O)c1ccccc1
[2], x2 = 0
Conditions | mass density [kg/m3] | speed of sound [m/s] | viscosity [mPa·s]
303.15 K | 674.5 | 1116 | 0.375
308.15 K | 670.3 | 1092 | 0.35
313.15 K | 667.2 | 1072 | 0.325

CCCCCC [hexane]
[1]
Conditions | mass density [kg/m3] | speed of sound [m/s] | viscosity [mPa·s]
303.15 K | 649.8 | 1048 | 0.283
308.15 K | 645.9 | 1028 | 0.269
313.15 K | 642.2 | 1008 | 0.252

CCCCCC [hexane] + COC(=O)c1ccccc1
[2], x2 = 0
Conditions | mass density [kg/m3] | speed of sound [m/s] | viscosity [mPa·s]
303.15 K | 649.8 | 1048 | 0.283
308.15 K | 645.9 | 1028 | 0.269
313.15 K | 642.2 | 1008 | 0.252

COC(=O)c1ccccc1 [methyl benzoate]
[1]
Conditions | mass density [kg/m3] | speed of sound [m/s] | viscosity [mPa·s]
303.15 K | 1078.3 | 1380 | 1.667
308.15 K | 1074.4 | 1364 | 1.514
313.15 K | 1070.3 | 1348 | 1.376

COC(=O)c1ccccc1 [methyl benzoate] + C1CCCCC1
[2]
Conditions | mass density, 303.15 K [kg/m3] | mass density, 308.15 K [kg/m3] | mass density, 313.15 K [kg/m3] | speed of sound, 303.15 K [m/s] | speed of sound, 308.15 K [m/s] | speed of sound, 313.15 K [m/s] | viscosity, 303.15 K [mPa·s] | viscosity, 308.15 K [mPa·s] | viscosity, 313.15 K [mPa·s]
x1 = 0.088 | 796.9 | 793 | 789.1 | 1240 | 1220 | 1200 | 0.802 | 0.74 | 0.675
x1 = 0.1777 | 825.9 | 822.1 | 818.2 | 1252 | 1232 | 1212 | 0.82 | 0.757 | 0.704
x1 = 0.2692 | 855.8 | 851.9 | 848.1 | 1264 | 1244 | 1224 | 0.854 | 0.792 | 0.736
x1 = 0.3668 | 887.5 | 883.6 | 879.7 | 1276 | 1260 | 1240 | 0.905 | 0.84 | 0.781
x1 = 0.4667 | 918.8 | 915 | 911.1 | 1292 | 1276 | 1256 | 0.977 | 0.904 | 0.835
x1 = 0.5639 | 950 | 946.1 | 942.2 | 1308 | 1292 | 1276 | 1.076 | 0.999 | 0.932
x1 = 0.6675 | 981.7 | 978 | 974.1 | 1324 | 1308 | 1292 | 1.181 | 1.09 | 1.004
x1 = 0.7727 | 1013.3 | 1009.5 | 1005.5 | 1340 | 1324 | 1312 | 1.308 | 1.197 | 1.097
x1 = 0.8859 | 1046.1 | 1042.2 | 1038.3 | 1360 | 1344 | 1332 | 1.478 | 1.363 | 1.234
x1 = 1 | 1078.3 | 1074.4 | 1070.3 | 1380 | 1364 | 1348 | 1.667 | 1.514 | 1.376

COC(=O)c1ccccc1 [methyl benzoate] + CCCCCC
[2]
Conditions | mass density, 303.15 K [kg/m3] | mass density, 308.15 K [kg/m3] | mass density, 313.15 K [kg/m3] | speed of sound, 303.15 K [m/s] | speed of sound, 308.15 K [m/s] | speed of sound, 313.15 K [m/s] | viscosity, 303.15 K [mPa·s] | viscosity, 308.15 K [mPa·s] | viscosity, 313.15 K [mPa·s]
x1 = 0.1027 | 692.7 | 689 | 685.1 | 1072 | 1052 | 1036 | 0.324 | 0.301 | 0.283
x1 = 0.2076 | 738 | 734.2 | 730.3 | 1100 | 1080 | 1064 | 0.384 | 0.358 | 0.335
x1 = 0.3084 | 781.4 | 777.6 | 773.7 | 1128 | 1108 | 1096 | 0.441 | 0.409 | 0.383
x1 = 0.4087 | 825.2 | 821.3 | 817.3 | 1160 | 1140 | 1128 | 0.527 | 0.487 | 0.454
x1 = 0.5114 | 869.6 | 865.6 | 861.7 | 1196 | 1180 | 1164 | 0.624 | 0.579 | 0.542
x1 = 0.6115 | 913.1 | 909.2 | 905.3 | 1232 | 1220 | 1200 | 0.751 | 0.688 | 0.635
x1 = 0.7092 | 955.5 | 951.5 | 947.3 | 1272 | 1256 | 1240 | 0.915 | 0.844 | 0.78
x1 = 0.8069 | 997.7 | 993.7 | 989.7 | 1312 | 1292 | 1280 | 1.104 | 1.016 | 0.935
x1 = 0.9024 | 1036.9 | 1033 | 1029.1 | 1344 | 1328 | 1316 | 1.37 | 1.238 | 1.135
x1 = 1 | 1078.3 | 1074.4 | 1070.3 | 1380 | 1364 | 1348 | 1.667 | 1.514 | 1.376
